Test results taken from US20050209278A1, “Piperidinyl- and piperazinyl-sulfonylmethyl hydroxamic acids and their use as protease inhibitors” (priority 2002, published 2005).
Structures can show the parent of a compound that is named as a salt. Where two headings read alike, the source gives them in different places.

What was measured:
MMP-14 = target: T1, MMP-14 (Homo sapiens, UniProt P50281); assay: In vitro MMP inhibition, Ki determination (fluorogenic substrate II); format: biochemical; conditions: read-out: MMP-14 Ki
T1 construct: The catalytic domain enzyme was expressed in E. coli inclusion bodies, solubilized in urea; made in house
Procedure: (§1) Several hydroxamic acids and salts thereof were analyzed in in vitro assays to determine their ability to inhibit the MMP cleavage of peptide substrates. […] and IC50 constants were calculated from the assayed hydroxamic acid-MMP interactions.
(§2) Human recombinant MMP-1, MMP-2, MMP-9, MMP-13, and MMP-14 were used in this assay. All enzymes were prepared in Assignee's laboratories following usual laboratory procedures. Protocols for the preparation and use of these enzymes are available in the scientific literature. See, e.g., Enzyme Nomenclature (Academic Press, San Diego, Calif., 1992) (and the citations therein). See also, Freije et al., “Molecular cloning and expression of collagenase-3, a novel human matrix metalloproteinase produced by breast carcinomas,” J Biol. Chem., 269(24), 16766-16773 (1994).
The MMP-14 full length cDNA was provided by Dr. Gregory Goldberg of Washington University (St. Louis, Mo.). The catalytic domain enzyme was expressed in E. coli inclusion bodies, solubilized in urea, purified on a preparative […] reverse phase HPLC column, and then refolded in the presence of zinc acetate and purified for use.
(§3) All MMPs were activated using 4-aminophenylmercuric acetate (“APMA”, Sigma Chemical, St. Louis, Mo.) or trypsin. MMP-9 also was activated using human recombinant MMP-3 (purified in Assignee's laboratory following standard cloning and purification techniques).
(§4) Two fluorogenic, methoxycoumarin-containing polypeptide substrates were used in the MMP inhibition assays: [drawing 427] Here, “Dpa” is 3-(2,4-dinitrophenyl)-L-2,3-diaminopropionyl group, and “MCA” is 7-methoxycoumarin-4-yl acetyl. Substrate (I) was purchased from Baychem (Redwood City, Calif.), and substrate II was prepared Assignee's laboratory. Substrate I was used in the IC50 determination assays, while substrate II was used in the Ki determination assays. In the absence of MMP inhibitory activity, either substrate is cleaved at the Gly-Leu peptide bond. This cleavage separates the highly fluorogenic peptide from the 2,4-dinitrophenyl quencher, thus resulting in increase of fluorescent intensity.
(§5) The stock solutions of the assayed hydroxamic acids (or salts thereof) were prepared in 1% dimethyl sulfoxide (DMSO). These stock solutions were diluted in Buffer A (100 mM Tris-HCl, 100 mM NaCl, 10 mM CaCl2, 0.05% polyoxyethylene 23 lauryl ether, pH 7.5) to obtain solutions with different hydroxamic acid concentrations, i.e., assay solutions with different concentrations of the assayed MMP inhibitory compound. The experiment controls contained the same amount of Buffer A/DMSO as the assayed sample, but contained no hydroxamic acid (or salt thereof).
(§6) The assays from which the Ki determinations were made were performed as follows. The assayed hydroxamic acid samples were incubated in separate wells of untreated white polystyrene plates (Nunc Nalgene International, Rochester, N.Y.), and analyzed on a Tecan SpectraFlour Plus plate reader. The excitation wavelength was 330 nm, and the emission wavelength—420 nm. All samples (assayed hydroxamic acids and controls) were incubated in separate plate wells at room temperature for 1 hr in the presence of 4 μM of MMP substrate (II). In the absence of MMP inhibitory activity, substrate II was cleaved at the Gly-Leu bond resulting in an increase of relative fluorescence. Inhibition was observed as a reduced rate of this increase in relative fluorescence. The various hydroxamic acids were analyzed using a single low enzyme concentration with a single substrate concentration fixed at or below the Km. This protocol is a modification of method by Knight et al., FEBS Lett., 296(3), 263-266 (1992). Apparent inhibitory constants were determined by non-linear regression of reaction velocity as a function of inhibitor and enzyme concentration using Morrison's equation, as described by Kuzmic, Anal. Biochem. 286, 45-50 (2000).

MMP-2 = target: T2, MMP-2 (Homo sapiens, UniProt P08253); assay: as above; format: biochemical; conditions: read-out: MMP-2 Ki
T2 construct: made in house; host or cells: MMP-2-transfected p2AHT2 cells
T2 sequence (P08253 110-660): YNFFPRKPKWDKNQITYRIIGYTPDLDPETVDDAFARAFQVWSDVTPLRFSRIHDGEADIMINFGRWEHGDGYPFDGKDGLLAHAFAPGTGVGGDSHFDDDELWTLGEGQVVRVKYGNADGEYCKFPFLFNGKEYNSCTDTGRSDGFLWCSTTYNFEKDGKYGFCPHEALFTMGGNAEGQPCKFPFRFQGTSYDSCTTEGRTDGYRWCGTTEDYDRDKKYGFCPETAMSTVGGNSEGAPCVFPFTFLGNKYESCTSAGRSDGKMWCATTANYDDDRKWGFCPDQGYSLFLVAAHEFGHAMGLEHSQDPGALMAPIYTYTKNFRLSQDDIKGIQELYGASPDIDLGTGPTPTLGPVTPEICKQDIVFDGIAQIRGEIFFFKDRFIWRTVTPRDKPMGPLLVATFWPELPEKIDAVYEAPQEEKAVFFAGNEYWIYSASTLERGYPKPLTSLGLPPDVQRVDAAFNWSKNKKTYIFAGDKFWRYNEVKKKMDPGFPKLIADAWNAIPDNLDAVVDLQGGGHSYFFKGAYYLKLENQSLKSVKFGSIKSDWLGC
Procedure: as §1, §2
The MMP-2 proenzyme was purified by gelatin Sepharose chromatography from MMP-2-transfected p2AHT2 cells provided by Dr. Gregory Goldberg of Washington University (St. Louis, Mo.).
as §3, §4, §5
as §6, with “(2000). […] Since the substrate concentration was chosen to be at or below the Km, the apparent Ki's from this analysis were reported as Ki's without correction for the influence of substrate.” for “(2000).”

[1] = human recombinant enzyme (catalytic domain), 4 μM substrate II, room temperature, 1 hr
[2] = human recombinant enzyme, 4 μM substrate II, room temperature, 1 hr

| SMILES | Ki (MMP-14; value not in parenthesis) [nM] | Ki (MMP-2; value not in parenthesis) [nM] | Ki (MMP-14; [1]) [nM] | Ki (MMP-2; [2]) [nM] |
| --- | --- | --- | --- | --- |
| CCCCc1ccc(C2CCN(S(=O)(=O)C3(C(=O)NO)CCOCC3)CC2)s1 [Example 19, 4-{[4-(5-butylthien-2-yl)piperidin-1-yl]sulfonyl}-N-hydroxytetrahydro-2H-pyran-4-carboxamide] | – | – | 2190 | 2.06 |
| COCCN1CCC(C(=O)NO)(S(=O)(=O)N2CCN(c3ccc(OCCCC(F)(F)F)cc3)CC2)CC1 [Example 9, N-hydroxy-1-(2-methoxyethyl)-4-({4-[4-(4,4,4-trifluorobutoxy)phenyl]piperazin-1-yl}sulfonyl)piperidine-4-carboxamide Dihydrochloride] | – | – | 5910 | 0.223 |
| O=C(NO)C1(S(=O)(=O)N2CCN(c3ccc(OCC(F)(F)F)cc3)CC2)CCOCC1 [Example 2, N-hydroxy-4-({4-[4-(2,2,2-trifluoroethoxy)phenyl]piperazin-1-yl}sulfonyl)tetrahydro-2H-pyran-4-carboxamide Hydrochloride] | – | – | 1940 | 0.74 |
| CCCCc1ccc(C2CCN(S(=O)(=O)C3(C(=O)NO)CCN(C4CC4)CC3)CC2)nc1 [Example 24, 4-{[4-(5-butylpyridin-2-yl)piperidin-1-yl]sulfonyl}-1-cyclopropyl-N-hydroxypiperidine-4-carboxamide Hydrochloride] | – | – | 2900 | 0.91 |
| COc1ccc(N2CCN(S(=O)(=O)C3(C(=O)NO)CCOCC3)CC2)nc1 [Example 109] | > 10000 | 477 | – | – |
| O=C(NO)C1(S(=O)(=O)N2CCN(c3ncc(Br)cn3)CC2)CCOCC1 [Example 104] | 305 | 4.73 | – | – |
| COCCN1CCC(C(=O)NO)(S(=O)(=O)N2CCN(c3ccc(OCCCC(F)(F)F)cc3F)CC2)CC1 [Example 102] | 7130 | 1.25 | – | – |
| CCCCOc1ccc(N2CCN(S(=O)(=O)C3(C(=O)NO)CCN4CCCC4C3)CC2)cc1F (centres unmarked) [Example 126] | > 10000 | 8.24 | – | – |
| O=C(NO)C1(S(=O)(=O)N2CCC(c3ccc(CCC(F)(F)C(F)(F)F)cc3)CC2)CCOCC1 [Example 18, N-hydroxy-4-({4-[4-(3,3,4,4,4-pentafluorobutyl)phenyl]piperidin-1-yl}sulfonyl)tetrahydro-2H-pyran-4-carboxamide] | – | – | 1770 | 0.565 |
| Cc1ccc(N2CCN(S(=O)(=O)C3(C(=O)NO)CCOCC3)CC2)nc1 [Example 138] | 66.6 | 0.469 | – | – |
| CCCCc1cnc(N2CCN(S(=O)(=O)C3(C(=O)NO)CCOCC3)CC2)cn1 [Example 1, 4-{[4-(5-butylpyrazin-2-yl)piperazin-1-yl]sulfonyl}-N-hydroxytetrahydro-2H-pyran-4-carboxamide Dihydrochloride] | – | – | 4290 | 1.52 |
| O=C(NO)C1(S(=O)(=O)N2CCN(c3ccc(-c4ccc(Cl)cc4)cn3)CC2)CCOCC1 [Example 60] | 328 | 0.54 | – | – |
| O=C(NO)C1(S(=O)(=O)N2CCN(c3ncccn3)CC2)CCOCC1 [Example 106] | 7510 | 134 | – | – |
| CCCCOc1ccc(N2CCN(S(=O)(=O)C3(C(=O)NO)CCN(CCOC)CC3)CC2)cc1F [Example 11, 4-[[4-(4-butoxy-3-fluorophenyl)-1-piperazinyl]sulfonyl]-N-hydroxy-1-(2-methoxyethyl)-4-piperidinecarboxamide, Dihydrochloride] | – | – | 3600 | 0.71 |
| O=C(NO)C1(S(=O)(=O)N2CCC(c3ccc(OCC(F)(F)F)cc3)CC2)CCN(C2CC2)CC1 [Example 25, 1-cyclopropyl-N-hydroxy-4-({4-[4-(2,2,2-trifluoroethoxy)phenyl]piperidin-1-yl}sulfonyl)piperidine-4-carboxamide Hydrochloride] | – | – | 5380 | 1.18 |
| CCCCCCCCCc1cnc(N2CCN(S(=O)(=O)C3(C(=O)NO)CCOCC3)CC2)nc1 [Example 110] | > 10000 | 61.7 | – | – |
| O=C(NO)C1(S(=O)(=O)N2CCN(c3ccc(OCCCC(F)(F)F)cc3)CC2)CCOCC1 [Example 7, N-hydroxy-4-({4-[4-(4,4,4-trifluorobutoxy)phenyl]piperazin-1-yl}sulfonyl)tetrahydro-2H-pyran-4-carboxamide Hydrochloride] | – | – | 4330 | 0.497 |

Continued, values first:

| Ki (MMP-14; value not in parenthesis) [nM] | Ki (MMP-2; value not in parenthesis) [nM] | Ki (MMP-14; [1]) [nM] | Ki (MMP-2; [2]) [nM] | SMILES |
| --- | --- | --- | --- | --- |
| > 10000 | 5.23 | – | – | CCCCOc1ccc(N2CCN(S(=O)(=O)C3(C(=O)NO)CCN(c4nccc(C(F)(F)F)n4)CC3)CC2)cc1 [Example 130] |
| > 10000 | 0.193 | – | – | CCCCOc1ccc(N2CCN(S(=O)(=O)C3(C(=O)NO)CCN(C(=O)N4CCOCC4)CC3)CC2)cc1 [Example 124] |
| 5650 | 1.28 | – | – | CCCCOc1ccc(N2CCN(S(=O)(=O)C3(C(=O)NO)CCN(C(=S)N(C)C)CC3)CC2)cc1 [Example 123] |
| 5350 | 1.83 | – | – | CCCCOc1ccc(N2CCN(S(=O)(=O)C3(C(=O)NO)CCN(c4ncc(CC)cn4)CC3)CC2)cc1 [Example 155] |
| 4330 | 1.64 | – | – | C=CCCOC(=O)N1CCC(C(=O)NO)(S(=O)(=O)N2CCN(c3ccc(OCCCC)cc3)CC2)CC1 [Example 101] |
| 945 | 0.672 | – | – | CCCCOc1ccc(N2CCN(S(=O)(=O)C3(C(=O)NO)CCN(c4cnccn4)CC3)CC2)cc1 [Example 140] |
| 6770 | 0.502 | – | – | O=C(NO)C1(S(=O)(=O)N2CCN(c3ccc(OCCCC(F)(F)F)cc3)CC2)CCN(C2CC2)CC1 [Example 153] |
| > 10000 | 1.48 | – | – | CCCCOc1ccc(N2CCN(S(=O)(=O)C3(C(=O)NO)CCN(C(=O)OCC(F)(F)F)CC3)CC2)cc1 [Example 115] |
